Measurements: publication PMC12394658, “Discovery of Zharp1-163 as a dual inhibitor of ferroptosis and necroptosis for the treatment of inflammatory disorders and kidney injury” (Cell Death Discovery, 2025)

Tests used:
Assay in all cases: biochemical
Parameters in all cases: Kinase selectivity panel of 81 human kinases, ADP-Glo or HTRF, per cent inhibition at 1 uM
[1] = molecular target: T1, MLK1 (Homo sapiens, UniProt P80192)
T1 construct: gene MAP3K9
Protocol: (§1) We next sought to determine the binding affinity of Zharp1-163 for RIPK1 or RIPK3 via a binding assay (Fig. 4A). […] Further, we evaluated the selectivity of Zharp1-163 against a panel of 81 kinases (at 1000 nM). […] To elucidate the binding interactions between Zharp1-163 and RIPK1 kinase, we conducted molecular docking studies using the RIPK1 crystal structure (PDB ID: 4NEU). The predicted binding conformations and interaction patterns between Zharp1-163 and the RIPK1 kinase domain are presented in Fig. 4D, E. Like the cocrystallized ligand in the 4NEU crystal complex, Zharp1-163 was predicted to act as a typical type II kinase inhibitor, interacting with the DLG (Asp156-Leu157-Gly158)-out conformation of RIPK1 (Fig. 4D, E). The 2-aminoimidazo [1,2-a] pyridine moiety of Zharp1-163 formed hydrogen bonds with Met95 in the hinge region. Furthermore, the carboxylate group of Zharp1-163 established hydrogen bonds with Asp156 in the DLG-out region. Additionally, the saturated ring of Zharp1-163 was deeply embedded within the hydrophobic allosteric pocket formed by the residues Met66, Met67, Leu70, Val76, Leu129, and Leu159, which is created by the DLG-out conformation in RIPK1 (Fig. 4D, E).  Fig. 4 Zharp1-163 is a selective inhibitor of RIPK1 kinase activity. A Binding affinity curve of Zharp1-163 with RIPK1 and RIPK3. B In an in vitro kinase activity assay, recombinant RIPK1 was incubated with Zharp1-163, after which RIPK1 kinase activity was determined by measuring ATP levels via a luciferase reporter assay system. […] Kinases are marked with dots, where the color of each kinase indicates the level of inhibition achieved by Zharp1-163. D Predicted binding conformation of Zharp1-163. E Schematic representation of the interaction patterns between Zharp1-163 and the key residues in the binding pocket of the RIPK1 kinase. […] NIH3T3-RIPK3 cells were pretreated with the indicated concentrations of Zharp1-163 for 2 h and then treated with AP20187 (100 nM) for 24 h. Cell viability was determined by measuring ATP levels. […] HeLa-MLKL (1–190) cells were pretreated with the indicated concentrations of Zharp1-163 for 2 h and subsequently treated with AP20187 (100 nM) for 24 h. Cell viability was determined by measuring ATP levels. H Viability of IFNβ-primed MEFs at 18 h after stimulation with poly(I:C) plus z-VAD and treatment with Zharp1-163 (10 μM). I Effects of different concentrations of Zharp1-163 on WT or RIPK1 KO HT-29 cells. Cell viability was determined by measuring ATP levels. The data are presented as the mean ± SD of triplicate samples.

[2] = molecular target: ULK2 (Homo sapiens, UniProt Q8IYT8)
Protocol: as §1

[3] = molecular target: ITK (Homo sapiens, UniProt Q08881)
Chain of ITK (Q08881 whole entry): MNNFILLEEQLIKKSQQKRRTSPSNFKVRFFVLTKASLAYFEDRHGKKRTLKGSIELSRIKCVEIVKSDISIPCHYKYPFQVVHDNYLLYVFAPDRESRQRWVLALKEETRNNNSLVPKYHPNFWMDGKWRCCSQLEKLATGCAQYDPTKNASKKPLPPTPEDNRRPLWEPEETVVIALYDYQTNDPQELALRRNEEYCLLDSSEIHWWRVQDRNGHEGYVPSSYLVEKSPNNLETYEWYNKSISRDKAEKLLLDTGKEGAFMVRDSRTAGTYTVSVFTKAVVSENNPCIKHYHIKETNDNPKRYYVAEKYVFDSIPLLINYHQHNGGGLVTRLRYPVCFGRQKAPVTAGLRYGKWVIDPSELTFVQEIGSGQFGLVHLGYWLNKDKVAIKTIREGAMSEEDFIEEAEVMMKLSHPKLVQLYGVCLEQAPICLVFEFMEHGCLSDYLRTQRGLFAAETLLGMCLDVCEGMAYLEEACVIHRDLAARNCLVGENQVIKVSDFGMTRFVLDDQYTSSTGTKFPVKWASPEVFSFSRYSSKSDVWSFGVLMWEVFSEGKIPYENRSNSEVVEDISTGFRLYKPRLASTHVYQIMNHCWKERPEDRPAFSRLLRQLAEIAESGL
Protocol: as §1

[4] = molecular target: MARK1 (Homo sapiens, UniProt Q9P0L2)
Chain of MARK1 (Q9P0L2 whole entry): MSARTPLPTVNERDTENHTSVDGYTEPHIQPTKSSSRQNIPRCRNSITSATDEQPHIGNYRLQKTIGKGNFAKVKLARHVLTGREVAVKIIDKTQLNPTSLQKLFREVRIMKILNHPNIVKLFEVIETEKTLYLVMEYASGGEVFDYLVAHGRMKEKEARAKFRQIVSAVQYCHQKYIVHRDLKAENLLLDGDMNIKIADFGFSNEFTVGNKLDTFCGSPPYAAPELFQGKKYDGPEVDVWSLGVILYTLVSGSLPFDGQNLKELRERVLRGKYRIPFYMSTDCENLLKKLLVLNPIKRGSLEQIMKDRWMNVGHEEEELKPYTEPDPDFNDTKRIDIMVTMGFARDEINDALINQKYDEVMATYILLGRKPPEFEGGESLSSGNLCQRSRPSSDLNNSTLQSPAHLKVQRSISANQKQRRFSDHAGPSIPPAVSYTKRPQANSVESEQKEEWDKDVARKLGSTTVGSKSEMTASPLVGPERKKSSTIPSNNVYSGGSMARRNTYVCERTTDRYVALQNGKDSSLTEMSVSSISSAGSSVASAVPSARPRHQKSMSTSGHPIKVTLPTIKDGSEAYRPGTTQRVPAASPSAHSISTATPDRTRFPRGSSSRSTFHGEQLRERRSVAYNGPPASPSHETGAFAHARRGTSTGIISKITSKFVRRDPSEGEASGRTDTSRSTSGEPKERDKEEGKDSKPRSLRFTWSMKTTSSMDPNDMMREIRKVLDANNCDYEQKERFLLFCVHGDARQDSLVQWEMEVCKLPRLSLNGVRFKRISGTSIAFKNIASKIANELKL
Protocol: as §1

[5] = molecular target: DYRK1B (Homo sapiens, UniProt Q9Y463)
Protocol: as §1

[6] = molecular target: BRSK2 (Homo sapiens, UniProt Q8IWQ3)
Chain of BRSK2 (Q8IWQ3 whole entry): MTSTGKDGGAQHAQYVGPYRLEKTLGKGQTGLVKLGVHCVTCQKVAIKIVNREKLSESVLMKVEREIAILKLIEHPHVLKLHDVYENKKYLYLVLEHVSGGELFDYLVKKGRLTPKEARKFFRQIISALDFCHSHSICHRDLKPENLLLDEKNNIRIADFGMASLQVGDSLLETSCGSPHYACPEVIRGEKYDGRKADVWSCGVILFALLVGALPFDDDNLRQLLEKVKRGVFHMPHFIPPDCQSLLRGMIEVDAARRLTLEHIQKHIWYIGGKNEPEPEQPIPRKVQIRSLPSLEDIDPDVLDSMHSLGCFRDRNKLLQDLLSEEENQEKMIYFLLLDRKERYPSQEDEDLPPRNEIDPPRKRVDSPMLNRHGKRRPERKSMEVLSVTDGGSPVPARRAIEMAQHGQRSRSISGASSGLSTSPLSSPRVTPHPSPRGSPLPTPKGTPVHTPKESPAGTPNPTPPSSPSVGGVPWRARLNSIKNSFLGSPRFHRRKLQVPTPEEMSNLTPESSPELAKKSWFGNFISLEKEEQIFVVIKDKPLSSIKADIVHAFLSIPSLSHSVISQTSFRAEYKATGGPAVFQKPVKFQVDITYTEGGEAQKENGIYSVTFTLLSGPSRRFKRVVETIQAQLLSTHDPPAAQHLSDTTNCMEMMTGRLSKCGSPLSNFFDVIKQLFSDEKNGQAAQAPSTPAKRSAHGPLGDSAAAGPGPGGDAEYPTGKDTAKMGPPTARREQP
Protocol: as §1

[7] = molecular target: T2, TIE2 (Homo sapiens, UniProt Q02763)
T2 construct: gene TEK
Protocol: as §1

[8] = molecular target: T3, PKD2 (Homo sapiens, UniProt Q9BZL6)
T3 construct: gene PRKD2
Protocol: as §1

[9] = molecular target: T4, SGK (Homo sapiens, UniProt O00141)
T4 construct: gene SGK1
T4 sequence (O00141 whole entry): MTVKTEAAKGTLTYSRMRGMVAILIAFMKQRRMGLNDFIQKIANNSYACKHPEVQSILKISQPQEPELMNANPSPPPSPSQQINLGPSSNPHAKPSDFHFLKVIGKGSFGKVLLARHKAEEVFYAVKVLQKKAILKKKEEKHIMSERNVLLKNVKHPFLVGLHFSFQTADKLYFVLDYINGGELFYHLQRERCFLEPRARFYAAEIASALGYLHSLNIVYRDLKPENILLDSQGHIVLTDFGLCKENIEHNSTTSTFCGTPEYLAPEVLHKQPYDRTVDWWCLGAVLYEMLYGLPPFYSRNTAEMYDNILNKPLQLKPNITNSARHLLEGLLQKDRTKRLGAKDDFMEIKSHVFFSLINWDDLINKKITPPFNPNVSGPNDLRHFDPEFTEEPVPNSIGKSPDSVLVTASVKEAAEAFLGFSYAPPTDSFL
Protocol: as §1

[10] = molecular target: AXL (Homo sapiens, UniProt P30530)
Chain of AXL (P30530 whole entry): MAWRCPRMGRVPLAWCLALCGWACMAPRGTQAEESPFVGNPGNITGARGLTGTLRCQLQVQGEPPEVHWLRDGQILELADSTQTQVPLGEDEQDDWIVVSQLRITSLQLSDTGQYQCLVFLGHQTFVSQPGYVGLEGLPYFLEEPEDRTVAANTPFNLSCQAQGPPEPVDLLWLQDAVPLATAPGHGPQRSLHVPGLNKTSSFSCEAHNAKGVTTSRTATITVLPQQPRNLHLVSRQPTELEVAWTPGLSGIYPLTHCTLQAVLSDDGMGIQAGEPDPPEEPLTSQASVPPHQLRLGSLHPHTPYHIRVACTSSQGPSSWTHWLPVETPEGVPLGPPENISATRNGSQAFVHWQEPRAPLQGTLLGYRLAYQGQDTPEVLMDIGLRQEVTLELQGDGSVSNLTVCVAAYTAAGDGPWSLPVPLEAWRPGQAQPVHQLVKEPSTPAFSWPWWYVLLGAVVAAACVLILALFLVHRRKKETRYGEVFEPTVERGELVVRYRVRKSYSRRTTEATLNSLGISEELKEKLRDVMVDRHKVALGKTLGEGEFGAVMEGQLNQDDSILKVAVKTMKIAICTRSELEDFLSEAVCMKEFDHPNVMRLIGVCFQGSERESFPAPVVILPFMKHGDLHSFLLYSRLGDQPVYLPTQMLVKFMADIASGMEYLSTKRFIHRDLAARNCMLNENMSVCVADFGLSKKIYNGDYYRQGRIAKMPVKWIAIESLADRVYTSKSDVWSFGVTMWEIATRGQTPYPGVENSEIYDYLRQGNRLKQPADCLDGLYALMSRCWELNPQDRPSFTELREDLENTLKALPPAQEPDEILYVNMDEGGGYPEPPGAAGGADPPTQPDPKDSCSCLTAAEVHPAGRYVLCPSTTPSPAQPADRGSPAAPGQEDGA
Protocol: as §1

[11] = molecular target: T5, AMPKα1/β1/γ1 (Homo sapiens, UniProt Q13131)
T5 construct: gene PRKAA1
Protocol: as §1

[12] = molecular target: CLK1 (Homo sapiens, UniProt P49759)
Chain of CLK1 (P49759 whole entry): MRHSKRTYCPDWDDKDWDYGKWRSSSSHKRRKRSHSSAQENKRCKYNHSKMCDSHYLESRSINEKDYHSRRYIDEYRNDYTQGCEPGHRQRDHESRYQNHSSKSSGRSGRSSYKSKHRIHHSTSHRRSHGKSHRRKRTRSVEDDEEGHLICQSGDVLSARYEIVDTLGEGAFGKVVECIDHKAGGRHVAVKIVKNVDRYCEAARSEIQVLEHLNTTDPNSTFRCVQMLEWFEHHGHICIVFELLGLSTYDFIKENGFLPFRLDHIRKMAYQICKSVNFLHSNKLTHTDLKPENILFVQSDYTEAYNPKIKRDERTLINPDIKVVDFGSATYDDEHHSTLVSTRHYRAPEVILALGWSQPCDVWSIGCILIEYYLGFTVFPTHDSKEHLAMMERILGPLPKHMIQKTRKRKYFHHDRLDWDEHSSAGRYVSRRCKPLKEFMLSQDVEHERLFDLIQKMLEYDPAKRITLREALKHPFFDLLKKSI
Protocol: as §1

[13] = molecular target: T6, TSSK1 (Homo sapiens, UniProt Q9BXA7)
T6 construct: gene TSSK1B
T6 sequence (Q9BXA7 whole entry): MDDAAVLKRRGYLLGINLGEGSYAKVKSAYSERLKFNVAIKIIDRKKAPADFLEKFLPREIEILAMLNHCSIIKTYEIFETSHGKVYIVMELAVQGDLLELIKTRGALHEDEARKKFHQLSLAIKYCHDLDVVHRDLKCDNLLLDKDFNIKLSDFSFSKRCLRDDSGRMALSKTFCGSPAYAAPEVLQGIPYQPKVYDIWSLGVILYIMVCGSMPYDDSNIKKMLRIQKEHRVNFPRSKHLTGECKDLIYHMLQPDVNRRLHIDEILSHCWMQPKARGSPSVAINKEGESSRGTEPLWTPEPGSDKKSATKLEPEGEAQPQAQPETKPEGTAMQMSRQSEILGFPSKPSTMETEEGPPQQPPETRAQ
Protocol: as §1

[14] = molecular target: MAP2K1 (Homo sapiens, UniProt Q02750)
Chain of MAP2K1 (Q02750 whole entry): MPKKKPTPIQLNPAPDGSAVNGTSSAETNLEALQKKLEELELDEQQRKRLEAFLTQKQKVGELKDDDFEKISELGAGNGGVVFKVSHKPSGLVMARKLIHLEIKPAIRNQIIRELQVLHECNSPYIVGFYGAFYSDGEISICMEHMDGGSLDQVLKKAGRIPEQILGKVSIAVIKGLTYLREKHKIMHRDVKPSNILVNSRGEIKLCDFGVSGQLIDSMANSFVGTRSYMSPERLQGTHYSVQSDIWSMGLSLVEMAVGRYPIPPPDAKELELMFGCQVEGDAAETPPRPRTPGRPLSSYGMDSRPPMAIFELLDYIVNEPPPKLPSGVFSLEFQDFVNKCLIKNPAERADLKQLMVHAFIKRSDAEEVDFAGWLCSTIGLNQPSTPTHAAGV
Protocol: as §1

inhibition at 1 µM ([1]; replicate Data1): 21.2% | inhibition at 1 µM ([1]; replicate Data2): 32.7% | inhibition at 1 µM ([2]; replicate Data1): -5.94% | inhibition at 1 µM ([2]; replicate Data2): -8.78% | inhibition at 1 µM ([3]; replicate Data1): 19.4% | inhibition at 1 µM ([3]; replicate Data2): 18.5% | inhibition at 1 µM ([4]; replicate Data1): -11.5% | inhibition at 1 µM ([4]; replicate Data2): 4.11% | inhibition at 1 µM ([5]; replicate Data1): 16.6% | inhibition at 1 µM ([5]; replicate Data2): 9.23% | inhibition at 1 µM ([6]; replicate Data1): -6.15% | inhibition at 1 µM ([6]; replicate Data2): -3.32% | inhibition at 1 µM ([7]; replicate Data1): 11.9% | inhibition at 1 µM ([7]; replicate Data2): 26.5% | inhibition at 1 µM ([8]; replicate Data1): 12% | inhibition at 1 µM ([8]; replicate Data2): 6.79% | inhibition at 1 µM ([9]; replicate Data1): 2.39% | inhibition at 1 µM ([9]; replicate Data2): 0.81% | inhibition at 1 µM ([10]; replicate Data1): 10.9% | inhibition at 1 µM ([10]; replicate Data2): 1.24% | inhibition at 1 µM ([11]; replicate Data1): 12.1% | inhibition at 1 µM ([11]; replicate Data2): 6.96% | inhibition at 1 µM ([12]; replicate Data1): 38.1% | inhibition at 1 µM ([12]; replicate Data2): 33.2% | inhibition at 1 µM ([13]; replicate Data1): -0.22% | inhibition at 1 µM ([13]; replicate Data2): 2.05% | inhibition at 1 µM ([14]; replicate Data1): -8.67% | inhibition at 1 µM ([14]; replicate Data2): 0.16%
SMILES: Nc1cn2cc(-c3cnc4c(c3)N(C(=O)OC3CCCCC3)CCO4)ccc2n1 [Zharp1-163]
